# Laboratory results: patent publication US7432342B2, “Kinase anchor protein muteins, peptides thereof and related documents” (Sequenom, Inc., priority 2002, dated 2008)
# Read-outs that look alike come from different tables or passages of the source. Ends that are not written are not given here. Peptide text beside a SMILES is read from it.
# How the values were obtained:
# PKA-RIα-GFP = PKA-RIα-GFP (Bos taurus, UniProt P00514); assay: Surface plasmon resonance (BIAcore CM5 chips); assay type: binding
# PKA-RIα-GFP, sequence (P00514 1-109 limits assumed): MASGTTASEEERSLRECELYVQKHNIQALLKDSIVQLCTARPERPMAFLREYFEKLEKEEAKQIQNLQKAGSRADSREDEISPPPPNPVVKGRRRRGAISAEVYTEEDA
# Method: Two 27-mer peptides representing the Ile and Val variants (SEQ ID NOs:1 and 2, respectively) were synthesized and purified in milligram quantities and the affinity to PKA-RIα-GFP was determined using well-known surface plasmon resonance in combination with BIAcore chips (see, e.g., Current Opinion in Biotechnology (1997) 8:50-57; Current Opinion in Biotechnology (1994) 5:389-395; Current Opinion in Biotechnology (1994) 5:65-71; Structure (1995) 3:969; Current Biology (1995) pp. 699-705; Analytical Biochemistry (1991) 201:197-210; and macinfac.bio.unc.edu/biacore.html). PKA-RIα-GFP was coupled to BIAcore CM5 chips. BSA was immobilized on control chips.
# The affinities in this assay are lower compared to those determined by fluorescence anisotropy. The most likely reason is that in this study the signal difference between the flow cell with the regulatory subunit and the control protein BSA was measured, such that slight unspecific binding to BSA directly reduces the apparent affinity. However, similar to previous results, an affinity difference of PKA-RIα-GFP to both allelic 27-mer peptides was observed (Table 6).
# RIα isoform of PKA = RIα isoform of PKA (Bos taurus, UniProt P00514); assay: In vitro pull-down assay of GST-fused AKB domain variants (Example 1); assay type: binding; conditions: GST fusion of 40 C-terminal residues of D-AKAP2; RIα 20 μM; mouse and human AKB domains
# RIα isoform of PKA, sequence (P00514 whole entry, the tested form may be a part, canonical isoform): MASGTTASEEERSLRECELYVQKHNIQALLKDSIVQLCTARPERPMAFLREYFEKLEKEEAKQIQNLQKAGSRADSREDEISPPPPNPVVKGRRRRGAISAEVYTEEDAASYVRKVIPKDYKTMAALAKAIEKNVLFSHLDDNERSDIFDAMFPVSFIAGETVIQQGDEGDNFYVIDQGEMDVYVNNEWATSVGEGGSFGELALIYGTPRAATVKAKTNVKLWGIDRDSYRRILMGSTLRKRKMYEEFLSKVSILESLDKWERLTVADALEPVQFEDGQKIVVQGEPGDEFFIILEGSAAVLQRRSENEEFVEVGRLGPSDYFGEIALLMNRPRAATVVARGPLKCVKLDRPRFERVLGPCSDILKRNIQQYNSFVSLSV
# From the text: Binding of each AKB domain variant to PKA was first examined using an in vitro pull-down assay, in which the 40 C-terminal residues of D-AKAP2 (amino acids 623-662 of SEQ ID NO:64) containing the AKB were fused to glutathione-S-transferase (GST). The GST fusion constructs were made by fusing the 40 C-terminal amino acids of D-AKAP2 to the C-terminus of GST and subcloning between the NdeI and BamHI sites of pRSET (Invitrogen, Carlsbad, Calif.). The constructs were transfected into BL21 cells and expressed for 6 hours at 20° C. The cells were lysed in PBS with 5 mM BME and 0.1% Triton X-100. 3 μl of supernatant were added to 200 μl of this buffer and 10 μl glutathione beads. After three washes, RIα (53 μg, 20 μM) and RIIα (2.4 μg, 2 μM) were added to the beads, respectively, and the total volume was adjusted to 40 μl. After incubating for 30 min at 4° C., the beads were washed three times, and separated in a 10% acrylamide gel.
# RIα-D/D-GFP = target: T1, RIα-D/D-GFP (Bos taurus, UniProt P00514); assay: Co-localization of PKA regulatory domain with mitochondria-targeted AKB domain in 10T(1/2) cells (Example 3); assay type: cell-based; conditions: C-terminal 156 residues of D-AKAP2 fused to D-AKAP1 mitochondrial anchoring domain
# T1 construct: The dimerization/docking (D/D) domain of RIα and full-length RIIα were each fused with green fluorescent protein (GFP); expressed in transfected cells; host or cells: 10T(1/2) cells
# T1 sequence (P00514 2-135 limits assumed): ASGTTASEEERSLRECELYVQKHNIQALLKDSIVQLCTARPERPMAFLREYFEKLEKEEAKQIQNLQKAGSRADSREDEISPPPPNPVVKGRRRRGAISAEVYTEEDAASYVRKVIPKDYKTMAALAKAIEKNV
# From the text: The 30 amino acid mitochondrial anchoring domain of D-AKAP1 (Chen et al. (1997) J. Biol. Chem., 272:15247-57; and Huang et al. (1997) J. Biol. Chem., 272:8057-8064) was fused to the C-terminal 156 residues of mouse (amino acids 217-372 of SEQ ID NO:55) and human (amino acids 507-662 of SEQ ID NO:64) D-AKAP2, respectively, followed by a Flag-tag and subcloned into pcDNA4 (Invitrogen, Carlsbad, Calif.). The dimerization/docking (D/D) domain of RIα and full-length RIIα were each fused with green fluorescent protein (GFP) and cloned into pEGFPN1 (Clontech, Palo Alto, Calif.). […] The AKB domain was detected by immuno-staining with monoclonal antibodies against the Flag-tag (Kodak, Rochester, N.Y.) followed by rhodamine-conjugated secondary antibody (Jackson Lab, Bar Harbor, Me.). […]
# In this assay, the AKB domain within the C-terminal 156 residues of D-AKAP2 from mouse (Val) and human (Ile) was fused to the mitochondrial anchoring domain from D-AKAP1 and tethered to the outer mitochondrial membrane (Chen et al. (1997) J. Biol. Chem., 272:15247-15257; and Huang et al. (1997) J. Biol. Chem., 272:8057-8064). The binding of the AKB domain with the PKA regulatory domains was detected as the co-transfected PKA regulatory domains co-localized to the mitochondria. […]
# RIα = RIα (Bos taurus, UniProt P00514); assay: Fluorescence anisotropy binding of labeled 27-mer AKB Ile/Val peptides (Example 2); conditions: in vitro; 10 nM labeled peptide
# RIα, sequence (P00514 whole entry, the tested form may be a part, canonical isoform): as the sequence (P00514 whole entry, the tested form may be a part, canonical isoform) above
# Method: To assess the magnitude of the affinity difference, binding of both Ile/Val variants to the R-subunit isoforms of PKA was analyzed in a quantitative assay. Twenty-seven residue peptides containing the two AKB domain Ile/Val variants (SEQ ID NOs:1 and 2, respectively) of D-AKAP2 with a C-terminal cysteine were synthesized by SynPep Corporation (Dublin, Calif.). The peptides were HPLC (high performance liquid chromatography) purified and mass spectrometry checked. Both peptides were labeled with tetramethyl rhodamine-5-maleiamide (Molecular Probes, Eugene, Oreg.) at the cysteine residue and HPLC purified. Increasing concentrations of RIα and RIIβ, respectively, were equilibrated with 10 nM of peptide for at least one hour at room temperature in 10 mM HEPES, 150 mM NaCl, 3 mM EDTA, 0.005% polysorbate 20. […] Fluorescence anisotropy was monitored using a Fluoromax-2 (Spex, Jobin Yvon Horiba, Edison, N.J.) equipped with polarizers. The fluorophore was excited at 541 nm (5-10 nm bandpass) and emission was monitored at 575 nm (5-10 nm bandpass). […]
# Peptides of each AKB Ile/Val variant (SEQ ID NOs:1 and 2) were synthesized and fluorescence-labeled. Binding of the labeled peptides to the regulatory subunit isoforms was monitored using a fluorescence assay in which binding of the peptide was proportional to an increase in steady state anisotropy. […]
# PKA-RIIα-GFP = PKA-RIIα-GFP (Mus musculus, UniProt P12367); assay: ELISA of biotinylated 27-mer peptide immobilized on neutravidin plates; assay type: binding; conditions: 25 μM peptide on neutravidin; 0-5 μg/ml PKA-RIIα-GFP
# PKA-RIIα-GFP, sequence (P12367 1-46): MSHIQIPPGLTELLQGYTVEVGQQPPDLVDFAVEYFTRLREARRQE
# Method: The peptide biotin-bA-bA-[…] (SEQ ID NO:14) was synthesized as a C-terminal amide in milligram quantity and purified to a 96% purity by HPLC. Its identity was confirmed by MALDI TOF (matrix-assisted laser desorption ionization time-of-flight) mass spectrometry. The peptide was immobilized in neutravidin (NA)-coated 96-well microtiter plates and incubated with various concentrations of PKA-RIIα-GFP. Binding was detected using an anti-GFP antibody (3E6, Quantum Biotechnologies, QBiogene, Carlsbad, Calif.) in combination with a second horseradish peroxidase labeled antibody. Microtiterplates were coated with 40 μg/ml Neutravidin (NA) and subsequently incubated with 25 μM peptide. Various concentrations (0-5 μg/ml) of PKA-RIIα-GFP were added. Bound subunit was detected using a mouse anti-GFP antibody (1 μg/ml) and an anti-mouse-IgG-antibody labeled with peroxidase (1 μg/ml). Negative controls were utilized that contained either a microtiter plate with only neutravidine or only peptide, or neither one.
compound,measurement,setting,value
CC[C@H](C)[C@H](NC(=O)[C@H](CCCCN)NC(=O)[C@H](Cc1c[nH]c2ccccc12)NC(=O)[C@H](C)NC(=O)[C@H](CC(C)C)NC(=O)[C@H](CCC(=O)O)NC(=O)[C@H](CCC(=O)O)NC(=O)[C@H](CCC(N)=O)NC(=O)[C@H](C)NC(=O)[C@H](CCC(=O)O)NC(=O)[C@H](CC(=O)O)NC(=O)[C@@H](NC(=O)[C@H](CC(N)=O)NC(=O)CNC(=O)[C@H](CCC(N)=O)NC(=O)[C@@H](NC(C)=O)C(C)C)[C@@H](C)O)C(=O)N[C@@H](C)C(=O)N[C@@H](CCCCN)C(=O)N[C@@H](CCSC)C(=O)N[C@H](C(=O)N[C@H](C(=O)N[C@@H](CO)C(=O)N[C@@H](CC(=O)O)C(=O)N[C@H](C(=O)N[C@@H](CCSC)C(=O)N[C@@H](CCC(N)=O)C(=O)N[C@@H](CCC(N)=O)C(N)=O)C(C)C)C(C)C)[C@@H](C)CC [SEQ ID NO:15] (Ac-VQGNTDEAQEELAWKIAKMIVSDVMQQ-NH2),Kd,PKA-RIα-GFP,500 nM
CC[C@H](C)[C@H](NC(=O)[C@H](CCCCN)NC(=O)[C@H](Cc1c[nH]c2ccccc12)NC(=O)[C@H](C)NC(=O)[C@H](CC(C)C)NC(=O)[C@H](CCC(=O)O)NC(=O)[C@H](CCC(=O)O)NC(=O)[C@H](CCC(N)=O)NC(=O)[C@H](C)NC(=O)[C@H](CCC(=O)O)NC(=O)[C@H](CC(=O)O)NC(=O)[C@@H](NC(=O)[C@H](CC(N)=O)NC(=O)CNC(=O)[C@H](CCC(N)=O)NC(=O)[C@@H](NC(C)=O)C(C)C)[C@@H](C)O)C(=O)N[C@@H](C)C(=O)N[C@@H](CCCCN)C(=O)N[C@@H](CCSC)C(=O)N[C@H](C(=O)N[C@H](C(=O)N[C@@H](CO)C(=O)N[C@@H](CC(=O)O)C(=O)N[C@H](C(=O)N[C@@H](CCSC)C(=O)N[C@@H](CCC(N)=O)C(=O)N[C@@H](CCC(N)=O)C(N)=O)[C@@H](C)CC)C(C)C)[C@@H](C)CC [SEQ ID NO:16] (Ac-VQGNTDEAQEELAWKIAKMIVSDIMQQ-NH2),Kd,"PKA-RIα-GFP; PKA-RIα-GFP coupled to chip (1681 RU), BSA control chip, read-out: PKA-RIα-GFP binding affinity",860 nM
"Val variant: D-AKAP2 AKB domain with Val at amino acid 646 (SEQ ID NO:65), tested as GST fusion or mitochondria-targeted fusion construct (VQGNTDEAQEELAWKIAKMIVSDVMQQAQYDQPLEKSTKL; not fully specified)",binding of the RIα isoform of PKA to the AKB variant,RIα isoform of PKA,significantly higher affinity
same,targeting of RIα to the mitochondria,RIα-D/D-GFP,effectively targeted RIα to the mitochondria
same,binding affinity to RIα compared to the Ile variant,RIα,three-fold tighter
biotin-bA-bA-VQGNTDEAQEELAWKIAKMIVSDIMQQ [SEQ ID NO:14],binding to PKA-RIIα in ELISA,PKA-RIIα-GFP,able to bind to PKA-RIIα
